Reference: ChEMBL document CHEMBL1123366, “Antiinflammatory and aldose reductase inhibitory activity of some tricyclic arylacetic acids” (J Med Chem, 1986)

Experiments:
Mus musculus = organism: Mus musculus; experiment: Analgesic activity in mice by mouse phenylquinone writhing assay relative to aspirin.; assay type: functional
Rattus norvegicus = organism: Rattus norvegicus; experiment: Inhibition of carrageenan-induced inflammation of rat paw relative to phenylbutazone.; assay type: functional

SMILES | Activity (Mus musculus) | Activity (Rattus norvegicus)
CC(C(=O)O)c1ccc2c(=O)c3ccccc3ccc2c1 (centres undefined) | 20 | 68
O=C1Cc2ccc3c(c2O1)CCc1ccccc1C3=O | ~1 | 3
O=C(O)Cc1cc(O)c2c(c1)CCc1ccccc1C2=O | 4 | ~20
O=C(O)Cc1ccc2c(c1)CCc1cccc(O)c1C2=O | >=0.4 | <0.2
O=C(O)Cc1ccc2c(c1)CCc1ccc(O)cc1C2=O | ~0.2 | <0.2
O=C(O)Cc1ccc2c(c1)CCc1ccccc1C2=O | 1.5 | 7
O=C(O)Cc1ccc2c(c1O)CCc1ccccc1C2=O | ~8 | 15
O=C(O)Cc1ccc2c(c1)CCc1cc(O)ccc1C2=O | ~0.6 | ~0.4
CC(C(=O)O)c1cc(O)c2c(=O)c3ccccc3ccc2c1 (centres undefined) | ~6 | ~30
O=C(O)Cc1cc(O)c2c(=O)c3ccccc3ccc2c1 | ~1 | 5
O=C(O)Cc1ccc2c(=O)c3ccccc3ccc2c1 | 2 | 6
CC(C(=O)O)c1cc(O)c2c(c1)CCc1ccccc1C2=O (centres undefined) | 4 | ~60
O=C(O)c1ccccc1Nc1cccc(C(F)(F)F)c1 [FLUFENAMIC ACID] | <0.4 | ~6
COc1ccc2c(c1)c(CC(=O)O)c(C)n2C(=O)c1ccc(Cl)cc1 [INDOMETHACIN] | 60 | 16
CC(C(=O)O)c1cccc(C(=O)c2ccccc2)c1 (centres undefined) [KETOPROFEN] | 60 | 9
O=C(O)Cc1ccc2c(c1)OCc1ccccc1C2=O [OXEPINAC] | 4 | ~15
O=C(O)Cc1ccc2c(c1)SCc1ccccc1C2=O [TIOPINAC] | 14 | 40
